In patent US20020147145A1, “Materials and methods relating to the degradation of Cdc25A in response to DNA damage” (priority 2000, published 2002):
Entries after “also recorded” stand apart in the source; their conditions may differ. Non-standard residues stand in square brackets, D forms with d. Residues, ends and D or L forms follow the SMILES beside them. Nle = CCCC[C@H](N)C(=O)O

Experiments:
[1] = tested on: Chk1/Cdc25A; assay: Chk1/Cdc25A association (co-immunoprecipitation) in UV-irradiated U-2-OS cells transfected with HA-Cdc25A; type: cell-based, human; conditions: caffeine 10 mM, 1 hour preincubation before UV (15 J/m^2), lysed 2 hours later
Description: (§1) FIG. 3. […] Asynchronous SAOS-2 cells were irradiated with UV (15 J/m^2) or left untreated. Cells were harvested 2 hours later and lysates were subjected to immunoblotting and phosphatase activity measurements. […] After an additional 2 hours, cells were lysed and analyzed for levels and complexes of HACdc25A and Chk1 as indicated. […] Chk1 was immunoprecipitated from lysates of U-2-OS cells treated as in (B), and its activity determined in an in vitro kinase assay in the presence or absence of the Chk1 inhibitor, UCN-01 (1 μM), using purified GST-Cdc25A as a substrate.
(§2) Immunochemical techniques: Antibodies used in this study: Mouse monoclonal antibodies against human Cdc25A (DCS-122, DCS-124) and F-6 (Santa Cruz), Cdc25B (DCS-162, DCS-164) and Cdc25C (DCS-193) full length proteins fused to GST were generated by means of established hybridoma technology as described. Rabbit polyclonal antobody against Cdc25C (SC-327) were purchased from Santa Cruz. Antiserum against cdk2 Tyr15 was obtained from Calbiochem.

[2] = tested on: Cdc25A; assay: Cdc25A protein level and turnover by immunoblotting in UV-irradiated U-2-OS cells; type: cell-based, human; design: UV-induced degradation of the endogenous Cdc25A protein: dose or concentration left out as unconfirmed
[3] = tested on: Cdc25A; assay: Cdc25A phosphatase activity assay (activation of cyclin B1/Cdc2) on lysates of UV-irradiated U-2-OS cells; type: cell-based, human; design: Cdc25A-associated phosphatase activity after UV: dose or concentration left out as unconfirmed
[4] = tested on: tyrosine phosphatases including Cdc25
From the text: as §2

[5] = target: Chk1 (Homo sapiens, UniProt O14757); conditions: UCN-01 1 μM added into the kinase reaction; Chk1 immunoprecipitated from U-2-OS lysates
Sequence of Chk1 (O14757 whole entry): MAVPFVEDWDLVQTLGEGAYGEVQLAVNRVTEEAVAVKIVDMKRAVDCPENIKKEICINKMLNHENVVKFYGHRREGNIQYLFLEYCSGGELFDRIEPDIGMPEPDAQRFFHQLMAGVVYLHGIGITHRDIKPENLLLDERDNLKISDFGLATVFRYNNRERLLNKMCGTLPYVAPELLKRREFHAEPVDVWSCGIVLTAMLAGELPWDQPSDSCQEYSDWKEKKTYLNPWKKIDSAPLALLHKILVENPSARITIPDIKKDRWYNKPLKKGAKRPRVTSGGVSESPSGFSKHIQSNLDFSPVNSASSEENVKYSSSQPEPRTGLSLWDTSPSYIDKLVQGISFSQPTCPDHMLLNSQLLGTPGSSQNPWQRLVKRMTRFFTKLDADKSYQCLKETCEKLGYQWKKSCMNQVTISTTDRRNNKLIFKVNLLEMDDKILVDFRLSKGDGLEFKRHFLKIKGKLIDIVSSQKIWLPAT
Description: as §1, §2

[6] = UCN-01 at the time of UV irradiation (15 J/m^2), U-2-OS

Cn1c(=O)c2c(ncn2C)n(C)c1=O [caffeine]
UV-induced increase in Chk1/Cdc25A association [1]: quantitatively prevented
half-life of the Cdc25A protein after UV ([2]; caffeine prior to UV irradiation, compared to non-irradiated cells): restored

CCCC[C@@H](C=O)NC(=O)[C@H](CC(C)C)NC(=O)[C@H](CC(C)C)NC(C)=O [LLnL] (Ac-Leu-Leu-[Nle]-aldehyde)
UV-induced reduction of Cdc25A phosphatase activity ([3]; LLnL 25 μg/ml added immediately after UV (15 J/m^2), endogenous and ectopic Cdc25A, 1 hour after UV): entirely prevented
UV-induced reduction of Cdc25A protein level ([2]; LLnL 25 μg/ml added immediately after UV (15 J/m^2), U-2-OS (endogenous) and U-2-OS/B3C4 (ectopic Cdc25A), lysates 1 hour after UV): entirely prevented

sodium vanadate
ability of mock-treated cell lysates to dephosphorylate and superactivate cyclin E/cdk2 [4]: completely prevented

CN[C@@H]1C[C@H]2O[C@@](C)([C@@H]1OC)n1c3ccccc3c3c4c(c5c6ccccc6n2c5c31)C(=O)N[C@@H]4O [UCN-01]
basal and UV-induced Chk1 kinase activities towards GST-Cdc25A [5]: completely inhibited
Cdc25A-associated phosphatase activity after UV [3, 6]: allowed maintenance of high
UV-induced degradation of the endogenous Cdc25A protein [2, 6]: completely abolished; also recorded: prevented
